US5051405A, “Anti-thrombotic peptides and pseudopeptides” (Rhone-Poulenc Rorer Pharmaceuticals Inc., priority 1989, dated 1991)
Where a SMILES comes first, the peptide text is derived from it. [ ]: non-standard residue; d: D form. Inp = O=C(O)C1CCNCC1

Tests used:
[1] = target: T1, fibrinogen binding to thrombin-stimulated platelets (GPIIb/IIIa fibrinogen receptor) (Homo sapiens, UniProt P05106+P08514); test: Inhibition of radiolabeled (125I) fibrinogen binding assay; settings: thrombin-stimulated washed platelets; 125I-fibrinogen held at 0.176 μmol/liter (60 μg/ml); 22°-25° C.
T1 construct: endogenous in cells; host or cells: washed platelets, thrombin-stimulated
T1 sequence (P08514 32-887 limits assumed): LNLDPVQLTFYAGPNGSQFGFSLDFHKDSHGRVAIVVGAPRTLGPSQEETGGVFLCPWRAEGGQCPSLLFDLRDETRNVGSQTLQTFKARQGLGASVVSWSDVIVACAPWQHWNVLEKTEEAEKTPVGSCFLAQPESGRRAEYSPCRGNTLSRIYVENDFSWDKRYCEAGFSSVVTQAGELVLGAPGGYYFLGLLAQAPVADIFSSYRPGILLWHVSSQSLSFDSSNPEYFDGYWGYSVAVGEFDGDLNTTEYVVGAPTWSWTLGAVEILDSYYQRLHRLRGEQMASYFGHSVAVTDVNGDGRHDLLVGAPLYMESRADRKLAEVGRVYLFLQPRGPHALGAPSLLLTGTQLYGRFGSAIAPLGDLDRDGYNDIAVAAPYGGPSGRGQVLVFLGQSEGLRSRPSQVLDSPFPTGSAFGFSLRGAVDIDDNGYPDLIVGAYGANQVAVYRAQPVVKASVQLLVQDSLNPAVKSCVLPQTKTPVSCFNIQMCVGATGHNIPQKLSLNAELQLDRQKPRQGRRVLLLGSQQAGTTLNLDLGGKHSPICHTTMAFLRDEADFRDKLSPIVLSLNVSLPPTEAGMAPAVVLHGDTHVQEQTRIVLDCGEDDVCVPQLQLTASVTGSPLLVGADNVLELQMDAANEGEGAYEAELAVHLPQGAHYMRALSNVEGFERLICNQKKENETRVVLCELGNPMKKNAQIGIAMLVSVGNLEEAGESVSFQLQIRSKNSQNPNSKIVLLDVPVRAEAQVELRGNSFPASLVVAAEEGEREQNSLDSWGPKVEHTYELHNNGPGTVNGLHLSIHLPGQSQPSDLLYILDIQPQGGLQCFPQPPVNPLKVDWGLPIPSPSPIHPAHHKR
T1 sequence (P08514 891-1039 limits assumed): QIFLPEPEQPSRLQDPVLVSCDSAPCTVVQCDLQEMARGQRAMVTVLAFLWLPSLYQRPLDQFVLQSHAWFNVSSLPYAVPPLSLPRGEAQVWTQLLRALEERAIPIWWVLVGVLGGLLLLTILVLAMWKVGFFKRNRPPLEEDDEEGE
T1 sequence (P05106 27-788): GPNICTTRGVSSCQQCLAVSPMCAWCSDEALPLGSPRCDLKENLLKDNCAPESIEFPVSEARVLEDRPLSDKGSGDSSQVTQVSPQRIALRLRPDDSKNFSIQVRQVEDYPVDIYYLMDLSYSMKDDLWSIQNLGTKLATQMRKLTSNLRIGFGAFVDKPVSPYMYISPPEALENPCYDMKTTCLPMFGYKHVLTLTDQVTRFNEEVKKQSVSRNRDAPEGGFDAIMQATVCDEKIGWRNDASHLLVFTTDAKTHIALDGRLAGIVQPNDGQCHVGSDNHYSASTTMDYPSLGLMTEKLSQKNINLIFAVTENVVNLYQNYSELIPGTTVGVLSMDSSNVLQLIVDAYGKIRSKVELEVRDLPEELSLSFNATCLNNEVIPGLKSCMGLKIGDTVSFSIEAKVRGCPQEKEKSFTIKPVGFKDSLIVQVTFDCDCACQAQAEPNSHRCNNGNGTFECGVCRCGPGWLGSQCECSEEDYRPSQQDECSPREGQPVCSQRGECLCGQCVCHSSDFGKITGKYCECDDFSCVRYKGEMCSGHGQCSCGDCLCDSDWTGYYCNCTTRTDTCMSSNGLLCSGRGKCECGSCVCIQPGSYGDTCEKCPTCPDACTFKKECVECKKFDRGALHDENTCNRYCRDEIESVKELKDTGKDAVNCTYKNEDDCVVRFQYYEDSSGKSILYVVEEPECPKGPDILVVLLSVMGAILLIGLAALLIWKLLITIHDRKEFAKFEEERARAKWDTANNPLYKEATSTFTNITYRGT
Experimental: I. Inhibition of Radiolabeled (^125 I) Fibrinogen Binding Assay, which is essentially based on the method described in Proc. Natl. Acad. Sci. U.S.A. Vol. 83, pp. 5708-5712, August 1986, and is as follows.
Platelets are washed free of plasma constituents by the albumin density-gradient technique. In each experimental mixture platelets in modified Tyrode's buffer are stimulated with human α-thrombin at 22°-25° C. for 10 minutes (3.125×10" platelets per liter and thrombin at […]). Hirudin is then added at a 25-fold excess for 5 minutes before addition of the radiolabeled ligand and any competing ligand. After these additions, the final platelet count in the mixture is 1×10"/liter. After incubation for an additional 30 minutes at 22°-25° C., bound and free ligand are separated by centrifuging 50 μl of the mixture through 300 μl of 20% sucrose at 12,000 xg for 4 minutes. The platelet pellet is then separated from the rest of the mixture to determine platelet-bound radioactivity. Nonspecific binding is measured in mixtures containing an excess of unlabeled ligand. When binding curves are analyzed by Scatchard analysis, nonspecific binding is derived as a fitted parameter from the binding isotherm by means of a computerized program. To determine the concentration of each inhibitory compound necessary to inhibit 50% of fibrinogen binding to thrombin-stimulated platelets (IC50), each compound is tested at 6 or more concentrations with ^125 I-labeled fibrinogen held at 0.176 μmol/liter (60 μg/ml). The IC50 is derived by plotting residual fibrinogen binding against the logarithm of the sample compound's concentration.

Human Platelets = Human Platelets (Homo sapiens, UniProt P05106+P08514); test: Inhibition of fibrinogen-mediated platelet aggregation; assay type: cell-based; settings: compound at 100 μM; thrombin-activated human platelets, human fibrinogen added
Sequence of Human Platelets (P08514 32-1039): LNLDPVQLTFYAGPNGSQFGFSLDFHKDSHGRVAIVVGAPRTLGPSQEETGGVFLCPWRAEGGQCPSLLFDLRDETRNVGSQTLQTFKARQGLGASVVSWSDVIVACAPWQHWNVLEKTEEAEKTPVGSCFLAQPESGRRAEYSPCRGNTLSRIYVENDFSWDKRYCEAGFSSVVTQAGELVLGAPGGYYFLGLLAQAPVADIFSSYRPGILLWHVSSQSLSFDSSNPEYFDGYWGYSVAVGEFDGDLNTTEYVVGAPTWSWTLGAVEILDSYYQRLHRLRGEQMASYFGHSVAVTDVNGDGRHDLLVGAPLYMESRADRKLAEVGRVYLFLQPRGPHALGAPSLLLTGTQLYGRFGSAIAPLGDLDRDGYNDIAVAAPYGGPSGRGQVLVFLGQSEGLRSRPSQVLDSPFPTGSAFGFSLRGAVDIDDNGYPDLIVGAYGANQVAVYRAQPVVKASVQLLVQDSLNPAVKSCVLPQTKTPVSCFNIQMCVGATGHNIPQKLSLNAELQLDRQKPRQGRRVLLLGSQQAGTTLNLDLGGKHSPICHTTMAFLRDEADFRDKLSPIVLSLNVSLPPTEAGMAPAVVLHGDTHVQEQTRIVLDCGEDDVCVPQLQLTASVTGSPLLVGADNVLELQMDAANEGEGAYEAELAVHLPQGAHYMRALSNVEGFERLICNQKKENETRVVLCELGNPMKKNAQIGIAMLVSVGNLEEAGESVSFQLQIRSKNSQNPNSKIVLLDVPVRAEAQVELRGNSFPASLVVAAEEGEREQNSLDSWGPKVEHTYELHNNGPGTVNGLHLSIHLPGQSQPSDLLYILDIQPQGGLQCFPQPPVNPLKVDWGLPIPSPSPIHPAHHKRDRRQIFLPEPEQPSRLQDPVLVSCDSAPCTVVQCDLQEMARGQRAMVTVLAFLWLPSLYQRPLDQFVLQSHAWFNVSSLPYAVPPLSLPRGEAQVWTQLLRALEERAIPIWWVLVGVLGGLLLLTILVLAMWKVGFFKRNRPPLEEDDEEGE
Sequence of Human Platelets (P05106 27-788): as the sequence (P05106 27-788) above
Experimental: II. Inhibition of Fibrinogen - Mediated Platelet Aggregation, which is essentially based on the method described in Blood, Vol. 66, No. 4, Oct. 1985, pp. 946-952, and is as follows.
Human Platelets were isolated from freshly drawn whole blood and were suspended in 0.14 mol/L NaCl, 2.7 mmol/L […], 12 mmol/L NaHCO3, 0.42 mmol/L Na2 HPO4, 0.55 mmol/L glucose, and 5 mmol/L Hepes, pH 7.35 at 2×10^8 platelets/ml. The suspension was incubated at 37° C. An aliquot of 0.4 ml of platelet suspension was activated by human thrombin at a final concentration of 2 μg/ml of thrombin for one minute. After one minute the reaction was stopped by a thrombin inhibitor. Serial dilution of the compound being tested was then added to the activated platelet, the reaction was allowed to proceed for one minute, followed by the addition of human fibrinogen at a final concentration of […] of fibrinogen. Platelet aggregation was then recorded by an aggregometer. Rate of aggregation was used to calculate IC50.

Compound	IC50 [1] [µM]	inhibition at 100 µM (Human Platelets) [%]
CC(C)[C@H](NC(=O)[C@H](CC(=O)O)NC(=O)CNC(=O)C1CCN(C(=N)N)CC1)C(=O)O [1-Amidinopiperidine-4-Carboxylglycyl-L-Aspartyl-L-Valine]	1.8	92
CC(C)[C@H](NC(=O)[C@H](CC(=O)O)NC(=O)CNC(=O)C1CCCN(C(=N)N)C1)C(=O)O (stereo partly drawn) [N-amidinopiperidine-3-carboxylglycyl-L-aspartyl-L-valine]	10.5	87
CC(C)[C@H](NC(=O)[C@H](CC(=O)O)NC(=O)CNC(=O)C1CCCNC1)C(=O)O (stereo partly drawn) [Piperidine-3-Carboxylglycyl-L-Aspartyl-L-Valine]	> 64	78
CC(C)[C@H](NC(=O)[C@H](CC(=O)O)NC(=O)CNC(=O)C1CCNCC1)C(=O)O [Piperidine-4-carboxylglycyl-L-Aspartyl-L-Valine] (H-[Inp]GDV-OH)	10.5	86
